Data as given in US7858630B2, “D3 and 5-HT2A receptor modulators” (Hoffmann-La Roche Inc., priority 2008, dated 2010).

Key:
[1] = biological target: T1, human serotonin 5-HT2A receptor (Homo sapiens, UniProt P28223); assay: Radioligand binding ([3H]-ketanserin) to membranes of HEK-293 EBNA cells expressing human 5-HT2A receptor; settings: 1.1 nM [3H]-ketanserin, HEK-293 EBNA membranes, 1 h at RT
T1 construct: expressed in transfected cells; host or cells: HEK-293 EBNA cells, transient transfection; membrane preparation
T1 sequence (P28223 whole entry): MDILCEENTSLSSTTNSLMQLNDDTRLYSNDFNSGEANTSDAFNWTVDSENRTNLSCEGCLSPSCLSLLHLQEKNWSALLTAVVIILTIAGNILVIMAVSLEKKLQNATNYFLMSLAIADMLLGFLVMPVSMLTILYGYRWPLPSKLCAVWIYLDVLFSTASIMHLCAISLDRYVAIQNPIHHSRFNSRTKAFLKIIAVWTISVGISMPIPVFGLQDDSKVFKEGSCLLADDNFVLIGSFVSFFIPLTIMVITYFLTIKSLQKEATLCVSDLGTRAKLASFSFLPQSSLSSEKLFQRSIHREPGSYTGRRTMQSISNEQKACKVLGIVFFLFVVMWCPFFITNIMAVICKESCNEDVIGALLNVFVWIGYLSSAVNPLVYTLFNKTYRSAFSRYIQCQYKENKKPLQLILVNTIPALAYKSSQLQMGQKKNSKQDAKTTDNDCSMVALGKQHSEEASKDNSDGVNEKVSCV
Method: (§1) The ability of the compounds to bind to the 5-HT2A, D3 and D2 receptors was determined using radioligand binding to cloned receptors selectively expressed in HEK-293 EBNA cells.
(§2) Membrane Preparation for Human D2, Human D3 and Human 5-HT2A Receptors
(§3) HEK-293 EBNA cells were transiently transfected with expression plasmids encoding for the human D2 or D3 dopamine- or for the human 5-HT2A serotonin receptor, respectively. The cells were harvested 48 h post-transfection, washed three times with cold PBS and stored at −80° C. prior to use. The pellet was suspended in cold 50 mM Tris-HCl buffer containing 10 mM EDTA (pH 7.4) and homogenized with a Polytron (Kinematica AG, Basel, Switzerland) for 20-30 sec at 12.000 rpm. After centrifugation at 48.000×g for 30 min at 4° C., the pellet was resuspended in cold 10 mM Tris-HCl buffer containing 0.1 mM EDTA (pH 7.4), homogenized, and centrifuged as above. This pellet was further resuspended in a smaller volume of ice cold 10 mM Tris-HCl buffer containing 0.1 mM EDTA (pH 7.4) and homogenized with a Polytron for 20-30 sec at 12.000 rpm. The protein content of this homogenate was determined with the Bio-Rad (Bradford) Protein Assay (Biorad Laboratories GmbH, München, Germany) according to the instructions of the manufacturer using gamma globulin as the standard. This homogenate was stored at −80° C. in aliquots and thawed immediately prior to use.
(§4) Radioligand Binding Assay Conditions
(§5) Aliquots of membrane preparations were thawed at RT, resupended in assay buffer (D2, D3: 50 mM Tris-HCl, 120 mM NaCl, 5 mM MgCl2, 1 mM EDTA, 5 mM KCl, 1.5 mM CaCl2, pH=7.4; 5-HT2A: 50 mM Tris-HCl, 10 mM MgCl2, 1 mM EGTA, pH=7.4), homogenized with a Polytron for 20-30 sec at 12.000 rpm and adjusted to a final concentration of approximately 7.5 μg protein/well (D2, D3) and 15 μg protein/well (5-HT2A), respectively.
(§6) The binding affinity (Ki) of the compounds was determined using radioligand binding. Membranes were incubated in a total volume of 200 μl with a fixed concentration of radioligand (final concentration approximately 0.7 nM [^3H]-spiperone for D2, 0.5 nM [^3H]-spiperone for D3, and 1.1 nM [^3H]-ketanserin for 5-HT2A) and ten concentrations of test compound in ranging between 10 μM-0.1 nM for 1 h at RT. At the end of the incubation, the reaction mixtures were filtered on to unifilter 96-well white microplates with bonded GF/C filters (Packard BioScience, Zurich, Switzerland; preincubated for 1 h in 0.1% polyethylenimine (PEI) in assay buffer) with a Filtermate 196 harvester (Packard BioScience) and washed 3 times with cold assay buffer. The nonspecific binding was determined with equally composed reaction mixtures in the presence of 10 μM unlabelled spiperone. Per well 45 μl of Microscint 40 (Perkin Elmer, Schwerzenbach, Switzerland) was added, plates for sealed, shaken for 20 min and counted for 3 min on a Topcount Microplate Scintillation Counter (Canberra Packard SA, Zurich, Switzerland) with quenching correction.
(§7) The CPM value for each duplicate of a concentration of competing compound was averaged (y1), then the % specific binding was calculated according to the equation (((y1−non-specific)/(total binding-non-specific))×100). Graphs were plotted with the % specific binding using XLfit, a curve fitting program that iteratively plots the data using Levenburg Marquardt algorithm. The single site competition analysis equation used was y=A+((B−A)/(1+((x/C)^D))), where y is the % specific binding, A is the minimum y, B is the maximum y, C is the IC50, x is the log10 of the concentration of the competing compound and D is the slope of the curve (the Hill Coefficient). From these curves the IC50 (inhibition concentration at which 50% specific binding of the radioligand was displaced) and Hill coefficient were determined. […]

[2] = biological target: T2, human dopamine D3 receptor (Homo sapiens, UniProt P35462); assay: Radioligand binding ([3H]-spiperone) to membranes of HEK-293 EBNA cells expressing human D3 receptor; settings: human D3, 0.5 nM [3H]-spiperone, HEK-293 EBNA membranes, 1 h at RT
T2 construct: expressed in transfected cells; host or cells: HEK-293 EBNA cells, transient transfection; membrane preparation
T2 sequence (P35462 whole entry): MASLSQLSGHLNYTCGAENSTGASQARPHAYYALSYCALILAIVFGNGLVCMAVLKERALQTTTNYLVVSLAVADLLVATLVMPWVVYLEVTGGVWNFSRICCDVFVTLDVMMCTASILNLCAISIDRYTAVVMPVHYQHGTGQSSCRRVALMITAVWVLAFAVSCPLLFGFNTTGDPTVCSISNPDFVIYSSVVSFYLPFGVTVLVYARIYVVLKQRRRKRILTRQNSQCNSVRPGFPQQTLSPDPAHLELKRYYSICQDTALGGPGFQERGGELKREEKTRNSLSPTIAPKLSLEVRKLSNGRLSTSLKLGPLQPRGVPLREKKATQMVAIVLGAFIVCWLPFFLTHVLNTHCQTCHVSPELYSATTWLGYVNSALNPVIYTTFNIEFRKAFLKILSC
Method: as §1, §2, §3, §4, §5, §6, §7

[3] = biological target: T3, human dopamine D2 receptor (Homo sapiens, UniProt P14416); assay: Radioligand binding ([3H]-spiperone) to membranes of HEK-293 EBNA cells expressing human D2 receptor; settings: human D2, 0.7 nM [3H]-spiperone, HEK-293 EBNA membranes, 1 h at RT
T3 construct: expressed in transfected cells; host or cells: HEK-293 EBNA cells, transient transfection; membrane preparation
T3 sequence (P14416 whole entry): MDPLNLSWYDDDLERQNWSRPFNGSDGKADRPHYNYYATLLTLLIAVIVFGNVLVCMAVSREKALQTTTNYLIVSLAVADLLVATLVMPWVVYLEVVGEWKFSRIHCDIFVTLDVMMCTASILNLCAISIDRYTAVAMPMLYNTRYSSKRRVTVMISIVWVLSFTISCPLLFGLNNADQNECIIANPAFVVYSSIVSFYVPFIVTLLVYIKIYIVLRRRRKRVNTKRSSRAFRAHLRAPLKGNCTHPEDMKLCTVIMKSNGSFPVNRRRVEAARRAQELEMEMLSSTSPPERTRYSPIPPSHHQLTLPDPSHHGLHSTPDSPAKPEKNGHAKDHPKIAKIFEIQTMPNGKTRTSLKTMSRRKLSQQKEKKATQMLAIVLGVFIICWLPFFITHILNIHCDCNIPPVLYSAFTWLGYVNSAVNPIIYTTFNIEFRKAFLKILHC
Method: as §1, §2, §3, §4, §5, §6, §7

| Structure (SMILES) | Ki [1] | Ki [2] | Ki [3] |
| --- | --- | --- | --- |
| CC(C)OC1CCC(CC(=O)N[C@H]2CC[C@H](CCN3CCN(c4noc5ccc(F)cc45)CC3)CC2)CC1 (mixture of isomers) [Example 10, N-trans-(4-{2-[4-(5-Fluoro-benzo[d]isoxazol-3-yl)-piperazin-1-yl]-ethyl}-cyclohexyl)-2-(4-isopropoxy-cyclohexyl)-acetamide] | 10.4 nM | 6.6 nM | 11500 nM |
| CC1(C)CC(CC(=O)N[C@H]2CC[C@H](CCN3CCN(c4noc5ccc(F)cc45)CC3)CC2)CCO1 (mixture of isomers) [Example 18, Rac-2-(2,2-Dimethyl-tetrahydro-pyran-4-yl)-N-trans-(4-{2-[4-(5-fluoro-benzo[d]isoxazol-3-yl)-piperazin-1-yl]-ethyl}-cyclohexyl)-acetamide] | 25.2 nM | 12.1 nM | 891 nM |
| CO[C@@H]1CC[C@@H](CC(=O)N[C@H]2CC[C@H](CCN3CCN(c4noc5ccccc45)CC3)CC2)C1 (relative stereo) [Example 3, N-trans-{4-[2-(4-Benzo[d]isoxazol-3-yl-piperazin-1-yl)-ethyl]-cyclohexyl]-2-trans-(3-methoxy-cyclopentyl)-acetamide] | 482 nM | 13.9 nM | 355 nM |
| CO[C@H]1CC[C@H](CC(=O)N[C@H]2CC[C@H](CCN3CCN(c4noc5cc(Cl)ccc45)CC3)CC2)C1 (relative stereo) [Example 36, N-trans-(4-{2-[4-(6-Chloro-benzo[d]isoxazol-3-yl)-piperazin-1-yl]-ethyl}-cyclohexyl)-2-trans-(3-methoxy-cyclopentyl)-acetamide] | 2.74 nM | 10.1 nM | 683 nM |
| COCCC(=O)N[C@H]1CC[C@H](CCN2CCN(c3noc4ccccc34)CC2)CC1 [Example 1, N-trans-{4-[2-(4-benzo[d]isoxazol-3-yl-piperazin-1-yl)-ethyl]-cyclohexyl}-3-methoxy-propionamide] | 4.88 nM | 12.1 nM | 347 nM |
| CC(=O)N[C@H]1CC[C@H](CCN2CCN(c3noc4ccccc34)CC2)CC1 [Example 2, N-trans-{4-[2-(4-benzo[d]isoxazol-3-yl-piperazin-1-yl)-ethyl]-cyclohexyl}-acetamide] | 4.96 nM | 8.88 nM | 272 nM |
| O=C(CO)N[C@H]1CC[C@H](CCN2CCN(c3noc4ccccc34)CC2)CC1 [Example 4, N-trans-{4-[2-(4-Benzo[d]isoxazol-3-yl-piperazin-1-yl)-ethyl]-cyclohexyl}-2-hydroxy-acetamide] | 3.36 nM | 16.5 nM | 517 nM |
| COCCC(=O)N[C@H]1CC[C@H](CCN2CCN(c3noc4ccc(F)cc34)CC2)CC1 [Example 5, N-trans-(4-{2-{4-(5-Fluoro-benzo[d]isoxazol-3-yl)-piperazin-1-yl]-ethyl}-cyclohexyl)-3-methoxy-propionamide] | 31.6 nM | 2.56 nM | 725 nM |
| O=C(N[C@H]1CC[C@H](CCN2CCN(c3noc4ccc(F)cc34)CC2)CC1)C1CCOCC1 [Example 7, Tetrahydro-pyran-4-carboxylic acid-trans-(4-{2-[4-(5-fluoro-benzo[d]isoxazol-3-yl)-piperazin-1-yl]-ethyl}-cyclohexyl)-amide] | 13.8 nM | 11.6 nM | 654 nM |
| O=C(CC1CCOCC1)N[C@H]1CC[C@H](CCN2CCN(c3noc4ccc(F)cc34)CC2)CC1 [Example 8, N-trans-(4-{2-[4-(5-Fluoro-benzo[d]isoxazol-3-yl)-piperazin-1-yl]-ethyl}-cyclohexyl)-2-(tetrahydro-pyran-4-yl)-acetamide] | 27.2 nM | 7.71 nM | 1710 nM |
| COCC(=O)N[C@H]1CC[C@H](CCN2CCN(c3noc4ccc(F)cc34)CC2)CC1 [Example 9, N-trans-(4-{2-[4-(5-Fluoro-benzo[d]isoxazol-3-yl)-piperazin-1-yl]-ethyl}-cyclohexyl)-2-methoxy-acetamide] | 23.3 nM | 7.49 nM | 1860 nM |
| CCOCC(=O)N[C@H]1CC[C@H](CCN2CCN(c3noc4ccc(F)cc34)CC2)CC1 [Example 12, 2-Ethoxy-N-trans-(4-{2-[4-(5-fluoro-benzo[d]isoxazol-3-yl)-piperazin-1-yl]-ethyl}-cyclohexyl)-acetamide] | 23.5 nM | 15.6 nM | 1390 nM |
| O=C(CC(F)(F)F)N[C@H]1CC[C@H](CCN2CCN(c3noc4cc(F)c(Cl)cc34)CC2)CC1 [Example 93, N-trans-(4-{2-[4-(5-Chloro-6-fluoro-benzo[d]isoxazol-3-yl)-piperazin-1-yl]-ethyl}-cyclohexyl)-3,3,3-trifluoro-propionamide] | 6 nM | 1.96 nM | – |

The remaining compounds from weak to strong by Ki [1], led by results:

| Ki [1] | Ki [2] | Ki [3] | Structure (SMILES) |
| --- | --- | --- | --- |
| 26.3 nM | 6.44 nM | 11800 nM | CO[C@H]1CC[C@H](CC(=O)N[C@H]2CC[C@H](CCN3CCN(c4noc5ccc(F)cc45)CC3)CC2)CC1 [Example 6, N-trans-(4-{2-[4-(5-Fluoro-benzo[d]isoxazol-3-yl)-piperazin-1-yl]-ethyl}-cyclohexyl)-2-trans-(4-methoxy-cyclohexyl)-acetamide] |
| 24 nM | 4.82 nM | 482 nM | CC(C)(O)CC(=O)N[C@H]1CC[C@H](CCN2CCN(c3noc4ccc(F)cc34)CC2)CC1 [Example 11, N-trans-(4-{2-[4-(5-Fluoro-benzo[d]isoxazol-3-yl)-piperazin-1-yl]-ethyl}-cyclohexyl)-3-hydroxy-3-methyl-butyramide] |
| 20.6 nM | 36 nM | 1020 nM | O=C(CC1C[C@@H]2CC[C@H]1O2)N[C@H]1CC[C@H](CCN2CCN(c3noc4ccc(F)cc34)CC2)CC1 (stereo in doubt) [Example 19, N-trans-(4-{2-[4-(5-Fluoro-benzo[d]isoxazol-3-yl)-piperazin-1-yl]-ethyl}-cyclohexyl)-2-(1R,4S)-7-oxa-bicyclo[2.2.1]hept-2-yl-acetamide] |
| 12.4 nM | 14.8 nM | 362 nM | O=C(N[C@H]1CC[C@H](CCN2CCN(c3noc4cc(Cl)ccc34)CC2)CC1)C(O)C(F)(F)F (mixture of isomers) [Example 33, N-trans-(4-{2-[4-(6-Chloro-benzo[d]isoxazol-3-yl)-piperazin-1-yl]-ethyl}-cyclohexyl)-rac-3,3,3-trifluoro-2-hydroxy-propionamide] |
| 4.4 nM | 7.67 nM | 822 nM | CO[C@@H]1CC[C@@H](CC(=O)N[C@H]2CC[C@H](CCN3CCN(c4noc5cc(F)c(F)cc45)CC3)CC2)C1 (relative stereo) [Example 65, N-trans-(4-{2-[4-(5,6-Difluoro-benzo[d]isoxazol-3-yl)-piperazin-1-yl]-ethyl}-cyclohexyl)-2-trans-(3-methoxy-cyclopentyl)-acetamide] |
| 3.37 nM | 10.4 nM | 3020 nM | CC(C)OC1CCC(CC(=O)N[C@H]2CC[C@H](CCN3CCN(c4noc5cc(Cl)ccc45)CC3)CC2)CC1 (mixture of isomers) [Example 51, N-trans-(4-{2-[4-(6-Chloro-benzo[d]isoxazol-3-yl)-piperazin-1-yl]-ethyl}-cyclohexyl)-2-(4-isopropoxy-cyclohexyl)-acetamide] |
